Results on 14 compounds are retold here after PubChem BioAssay AID252 (DTP/NCI, 2004).

Structures are written as SMILES. Where “and” joins values, the source holds several entries; their conditions need not be identical. Equal entries are not always repeated. Toxic doses and inconclusive results are not listed.

The assay concerns BDF1 mice, intracerebral L1210 leukemia, survival T/C. Nature of the assay: NCI In Vivo Anticancer Drug Screen. Data for tumor model L1210 Leukemia (intracerebral) in B6D2F1 (BDF1) mice. Conditions: endpoint: mean survival time, higher = longer survival. A digest of the protocol:
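Antitumour effect is judged in mice with transplanted tumour by comparing survival of treated (T) against vehicle-dosed (C) groups as T/C.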

Setting [1] is: dose: 10.0 mg/kg/injection, schedule: Q01DX009 (ip), vehicle: saline.

Take `O=NN(CCCl)C(=O)NC1CCC(NC(=O)N(CCCl)N=O)CC1` (stereo unspecified): the T/C by setting is: (dose: 38.0 mg/kg/injection, schedule: Q01DX001 (oral), vehicle: other) 119 % of control; (dose: 48.0 mg/kg/injection, schedule: Q01DX001 (ip), vehicle: other) 151 % of control and 157 % of control; (dose: 84.0 mg/kg/injection, schedule: Q01DX001 (oral), vehicle: other) 154 % of control; (dose: 96.0 mg/kg/injection, schedule: Q01DX001 (ip), vehicle: other) 276 % of control and 370 % of control; (dose: 127.0 mg/kg/injection, schedule: Q01DX001 (ip), vehicle: carboxymethylcellulose (CMC)) 232 % of control; (dose: 171.0 mg/kg/injection, schedule: Q01DX001 (oral), vehicle: other) 209 % of control. The T/C (dose: 191.0 mg/kg/injection, schedule: Q01DX001 (ip), vehicle: other) is 291 % of control and 389 % of control; the T/C (dose: 255.0 mg/kg/injection, schedule: Q01DX001 (ip), vehicle: carboxymethylcellulose (CMC)) was 307 % of control; the T/C (dose: 319.0 mg/kg/injection, schedule: Q01DX001 (oral), vehicle: other) was 198 % of control and 260 % of control; the T/C (dose: 383.0 mg/kg/injection, schedule: Q01DX001 (ip), vehicle: other) is 154 % of control; the T/C (dose: 510.0 mg/kg/injection, schedule: Q01DX001 (ip), vehicle: carboxymethylcellulose (CMC)) was 154 % of control; the T/C (dose: 638.0 mg/kg/injection, schedule: Q01DX001 (oral), vehicle: other) was 268 % of control and 398 % of control.
As for `C[n+]1c2ccccc2c(Nc2ccc(NS(=O)(=O)CCCCN=C(N)N)cc2)c2ccc(N)cc21`, the T/C is 103 % of control (dose: 1.5 mg/kg/injection, schedule: Q01DX009 (ip), vehicle: water); 121 % of control (dose: 3.0 mg/kg/injection, schedule: Q01DX009 (ip), vehicle: water); 117 % of control (dose: 6.0 mg/kg/injection, schedule: Q01DX009 (ip), vehicle: water); 101 % of control (dose: 12.0 mg/kg/injection, schedule: Q01DX009 (ip), vehicle: water).
In the case of `CC1CC(NC(=O)N(CCCl)N=O)CC(C)(C)C1` (stereo unspecified), the T/C is, setting by setting: (dose: 375.0 mg/kg/injection, schedule: Q01DX001 (ip), vehicle: other) 103 % of control; (dose: 500.0 mg/kg/injection, schedule: Q01DX001 (ip), vehicle: other) 124 % of control; (dose: 750.0 mg/kg/injection, schedule: Q01DX001 (ip), vehicle: other) 116 % of control.
With `O=NN(CCCl)C(=O)NC1CCC(C(=O)O)CC1` (stereo unspecified), the T/C (dose: 8.0 mg/kg/injection, schedule: Q01DX001 (ip), vehicle: saline with Tween-80) is 165 % of control; the T/C (dose: 26.0 mg/kg/injection, schedule: Q01DX001 (ip), vehicle: saline with Tween-80) was 181 % of control and 206 % of control; the T/C (dose: 40.0 mg/kg/injection, schedule: Q01DX001 (ip), vehicle: saline with Tween-80) is 185 % of control and 212 % of control; the T/C (dose: 60.0 mg/kg/injection, schedule: Q01DX001 (ip), vehicle: saline with Tween-80) was 204 % of control.
On to `O=NN(CCCl)C(=O)NC1CCSc2ccccc21` (stereo unspecified), for which the T/C is 164 % of control (dose: 26.0 mg/kg/injection, schedule: Q01DX001 (ip), vehicle: other); 206 % of control (dose: 27.0 mg/kg/injection, schedule: Q01DX001 (ip), vehicle: other); 201 % of control and 261 % of control (dose: 40.0 mg/kg/injection, schedule: Q01DX001 (ip), vehicle: other); 263 % of control and 288 % of control (dose: 60.0 mg/kg/injection, schedule: Q01DX001 (ip), vehicle: other); 161 % of control and 222 % of control (dose: 90.0 mg/kg/injection, schedule: Q01DX001 (ip), vehicle: other); 230 % of control (dose: 135.0 mg/kg/injection, schedule: Q01DX001 (ip), vehicle: other).
For the compound `CCOC(N)=O`, the T/C is 104 % of control (dose: 1074.0 mg/kg/injection, schedule: Q01DX001 (ip), vehicle: saline) and 106 % of control (dose: 1601.0 mg/kg/injection, schedule: Q01DX001 (ip), vehicle: saline).
Consider `Cc1cccc2c(Nc3ccc(NS(C)(=O)=O)cc3)c3ccccc3nc12`, for which the T/C by setting is: under setting [1], 100 % of control; (dose: 10.0 mg/kg/injection, schedule: Q01DX009 (sc), vehicle: saline) 96 % of control; (dose: 20.0 mg/kg/injection, schedule: Q01DX009 (ip), vehicle: saline) 110 % of control; (dose: 20.0 mg/kg/injection, schedule: Q01DX009 (sc), vehicle: saline) 101 % of control; (dose: 40.0 mg/kg/injection, schedule: Q01DX009 (ip), vehicle: saline) 112 % of control; (dose: 40.0 mg/kg/injection, schedule: Q01DX009 (sc), vehicle: saline) 97 % of control. Besides, the T/C (dose: 80.0 mg/kg/injection, schedule: Q01DX009 (ip), vehicle: saline) was 87 % of control and the T/C (dose: 80.0 mg/kg/injection, schedule: Q01DX009 (sc), vehicle: saline) was 104 % of control.
As for `O=NN(CCCl)C(=O)NC1C2CC3CC(C2)CC1C3` (stereo unspecified), the T/C reads like this: (dose: 22.0 mg/kg/injection, schedule: Q01DX001 (ip), vehicle: other) 109 % of control and 119 % of control; (dose: 45.0 mg/kg/injection, schedule: Q01DX001 (ip), vehicle: other) 175 % of control and 231 % of control; (dose: 91.0 mg/kg/injection, schedule: Q01DX001 (ip), vehicle: other) 340 % of control and 376 % of control; (dose: 144.0 mg/kg/injection, schedule: Q01DX001 (ip), vehicle: other) 153 % of control; (dose: 181.0 mg/kg/injection, schedule: Q01DX001 (ip), vehicle: other) 250 % of control and 335 % of control; (dose: 215.0 mg/kg/injection, schedule: Q01DX001 (ip), vehicle: other) 238 % of control. Moreover, the T/C is, setting by setting: (dose: 322.0 mg/kg/injection, schedule: Q01DX001 (ip), vehicle: other) 217 % of control; (dose: 362.0 mg/kg/injection, schedule: Q01DX001 (ip), vehicle: other) 103 % of control.
In the case of `CC(=O)NC1=C(N2CC2C)C(=O)C(NC(C)=O)=C(N2CC2C)C1=O` (stereo unspecified), the T/C is 118 % of control (dose: 2.5 mg/kg/injection, schedule: Q01DX009 (ip), vehicle: saline with Tween-80); 111 % of control (dose: 2.5 mg/kg/injection, schedule: Q01DX009 (ip), vehicle: saline); 120 % of control (dose: 5.0 mg/kg/injection, schedule: Q01DX009 (ip), vehicle: saline with Tween-80); 114 % of control (dose: 5.0 mg/kg/injection, schedule: Q01DX009 (ip), vehicle: saline); 94 % of control (dose: 10.0 mg/kg/injection, schedule: Q01DX009 (ip), vehicle: saline with Tween-80); 97 % of control under setting [1]. Further, the T/C (dose: 20.0 mg/kg/injection, schedule: Q01DX009 (ip), vehicle: saline with Tween-80) is 88 % of control.
As for `CN(C)C(=O)c1ccc(NC(=O)N(CCCl)N=O)cc1`, the T/C was 110 % of control (dose: 8.0 mg/kg/injection, schedule: Q01DX001 (ip), vehicle: other) and 121 % of control (dose: 24.0 mg/kg/injection, schedule: Q01DX001 (ip), vehicle: other).
Regarding `CC(=O)Nc1ccc2nc3ccc(NC(C)=O)cc3[n+](-c3ccccc3)c2c1`, the T/C runs as follows: (dose: 37.5 mg/kg/injection, schedule: Q01DX Z (ip), vehicle: carboxymethylcellulose (CMC)) 104 % of control; (dose: 50.0 mg/kg/injection, schedule: Q01DX Z (ip), vehicle: carboxymethylcellulose (CMC)) 98 % of control; (dose: 75.0 mg/kg/injection, schedule: Q01DX Z (ip), vehicle: carboxymethylcellulose (CMC)) 103 % of control; (dose: 100.0 mg/kg/injection, schedule: Q01DX Z (ip), vehicle: carboxymethylcellulose (CMC)) 101 % of control; (dose: 125.0 mg/kg/injection, schedule: Q01DX Z (ip), vehicle: carboxymethylcellulose (CMC)) 107 % of control; (dose: 250.0 mg/kg/injection, schedule: Q01DX Z (ip), vehicle: carboxymethylcellulose (CMC)) 97 % of control.
In the case of `O=NN(CCCl)C(=O)Nc1ccc(SCC(=O)O)cc1`, the T/C runs as follows: (dose: 12.0 mg/kg/injection, schedule: Q01DX001 (ip), vehicle: carboxymethylcellulose (CMC)) 95 % of control; (dose: 18.0 mg/kg/injection, schedule: Q01DX001 (ip), vehicle: carboxymethylcellulose (CMC)) 96 % of control; (dose: 26.0 mg/kg/injection, schedule: Q01DX001 (ip), vehicle: carboxymethylcellulose (CMC)) 88 % of control.
Regarding `CSc1ncnc2c1ncn2C1OC(CO)C(O)C1O` (stereo unspecified), the T/C was 113 % of control (dose: 25.0 mg/kg/injection, schedule: Q01DX Z (ip), vehicle: saline) and 92 % of control (dose: 50.0 mg/kg/injection, schedule: Q01DX Z (ip), vehicle: saline).
Take `CCC(=O)NC1=C(N2CC2C)C(=O)C(NC(=O)CC)=C(N2CC2C)C1=O` (stereo unspecified): the T/C by setting is: (dose: 1.56 mg/kg/injection, schedule: Q01DX009 (ip), vehicle: Klucel (hydroxypropylcellulose) (HPC)) 96 % of control; (dose: 3.12 mg/kg/injection, schedule: Q01DX009 (ip), vehicle: Klucel (hydroxypropylcellulose) (HPC)) 94 % of control; (dose: 12.5 mg/kg/injection, schedule: Q01DX009 (ip), vehicle: Klucel (hydroxypropylcellulose) (HPC)) 122 % of control and 335 % of control; (dose: 25.0 mg/kg/injection, schedule: Q01DX009 (ip), vehicle: Klucel (hydroxypropylcellulose) (HPC)) 101 % of control and 107 % of control.
